Assay results published in the supplement of paper PMC11208160.

experiment: recombinant barcode read abundance after kanamycin selection (control-corrected) (log10(CPM+1)); higher = more efficient recombination; sequences stand for … in AGTGCAGAGAAAATCGGCCAGTTTTCTCTGCCTGCAGTCCGCATGCCGT…AGATTTATGCAGCGGACTGCCTTTCTCCCAAAGTGATAAACCGGACAGTATCATGGACCGGTTTTCCCGGTAATCCGTATTTGCAAGGTTGGTTTCACT; site = the 11-nt target
How it was run: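 Recombination efficiency draws on barcodes counted at recombinant junctions in a pooled E. coli screen of targets paired with IS621 bridge RNA target-binding loops. The counts were converted to counts per million, averaged and corrected against the chloramphenicol/ampicillin LB agar control, then reported as log10(CPM+1). Selection plates held chloramphenicol/ampicillin/kanamycin with 0.1 mM IPTG, with two replicates per condition.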
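Further: IS621 recombinase and bridge RNA in Escherichia coli cells.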

Sequence | recombinant barcode read abundance (log10)
TAGGATACTTGGGTTCTAACCTGTTGCGT (site TAGGAGACTAC) | 0.266
TAGGATACTTGGGTTCTAACCTGTTGCGT (site TAGGATACTAC) | 3.02
TAGGATCCTTGGGTTCTAACCTGTTGCGA (site ACCCGCTCTAG) | 0.205
TAGGATCCTTGGGTTCTAACCTGTTGCGA (site TAGGATCCTTC) | 2.71
TAGGATTCTTGGGTTCTAACCTGTTGCCT (site TAATATTCTAG) | 0.0335
TAGGATTCTTGGGTTCTAACCTGTTGCCT (site TAGGATTCTAG) | 1.88
TAGGCGCCTTGGGTTCTAACCTGTTGCCT (site TAGGCGCCTAA) | 0.173
TAGGCGCCTTGGGTTCTAACCTGTTGCCT (site TAGGCGCCTAC) | 0.0375
TAGGCGCCTTGGGTTCTAACCTGTTGCCT (site TAGGCGCCTAG) | 0.252
TAGGCGCCTTGGGTTCTAACCTGTTGCCT (site TAGGCGCCTAT) | 0.235
TAGGCTACTTGGGTTCTAACCTGTTGCAA (site TAGGCTACTAT) | 0.144
TAGGCTACTTGGGTTCTAACCTGTTGCAA (site TAGGCTACTCT) | 0.0112
TAGGCTACTTGGGTTCTAACCTGTTGCAA (site TAGGCTACTGT) | 1.49
TAGGCTACTTGGGTTCTAACCTGTTGCAA (site TAGGCTACTTT) | 1.33
TAGGCTACTTGGGTTCTAACCTGTTGCAC (site TAGGCTACTAT) | 0.147
TAGGCTACTTGGGTTCTAACCTGTTGCAC (site TAGGCTACTCT) | 0.131
TAGGCTACTTGGGTTCTAACCTGTTGCAC (site TAGGCTACTGT) | 1.19
TAGGCTACTTGGGTTCTAACCTGTTGCAC (site TAGGCTACTTT) | 0.00761
TAGGCTACTTGGGTTCTAACCTGTTGCCA (site ACCCAATCTGT) | 0.0662
TAGGCTACTTGGGTTCTAACCTGTTGCCA (site TAGGCTACTTG) | 0.129
TAGGCTCCTTGGGTTCTAACCTGTTGCAG (site TAGGCTCCTAT) | 0.271
TAGGCTCCTTGGGTTCTAACCTGTTGCAG (site TAGGCTCCTCT) | 0.429

Sequence | recombinant barcode read abundance (log10)
TAGGCTCCTTGGGTTCTAACCTGTTGCAG (site TAGGCTCCTGT) | 0.0237
TAGGCTCCTTGGGTTCTAACCTGTTGCAG (site TAGGCTCCTTT) | 0.0834
TAGGCTGCTTGGGTTCTAACCTGTTGCCT (site TAGACTGCTAG) | 0.359
TAGGCTGCTTGGGTTCTAACCTGTTGCCT (site TAGCCTGCTAG) | 0
TAGGCTGCTTGGGTTCTAACCTGTTGCCT (site TAGGCTGCTAG) | 0.177
TAGGCTGCTTGGGTTCTAACCTGTTGCCT (site TAGTCTGCTAG) | 0.519
TAGGTTCCTTGGGTTCTAACCTGTTGCAT (site TAGGTACCTAT) | 0.795
TAGGTTCCTTGGGTTCTAACCTGTTGCAT (site TAGGTCCCTAT) | 0.335
TAGGTTCCTTGGGTTCTAACCTGTTGCAT (site TAGGTGCCTAT) | 0.6
TAGGTTCCTTGGGTTCTAACCTGTTGCAT (site TAGGTTCCTAT) | 1.04
TAGTACCCTTGGGTTCTAACCTGTTGCAT (site TAGTACCCTAT) | 0.43
TAGTACCCTTGGGTTCTAACCTGTTGCAT (site TAGTACCCTCT) | 0.0976
TAGTACCCTTGGGTTCTAACCTGTTGCAT (site TAGTACCCTGT) | 0.0568
TAGTACCCTTGGGTTCTAACCTGTTGCAT (site TAGTACCCTTT) | 0.227
TAGTAGTCTTGGGTTCTAACCTGTTGCCT (site TAGTAGTCTAA) | 0.0538
TAGTAGTCTTGGGTTCTAACCTGTTGCCT (site TAGTAGTCTAC) | 0.0503
TAGTAGTCTTGGGTTCTAACCTGTTGCCT (site TAGTAGTCTAG) | 1.64
TAGTAGTCTTGGGTTCTAACCTGTTGCCT (site TAGTAGTCTAT) | 0.108
TAGTATCCTTGGGTTCTAACCTGTTGCCA (site TACTACCCTTG) | 0.142
TAGTATCCTTGGGTTCTAACCTGTTGCCA (site TAGTATCCTTG) | 0.146
TAGTATCCTTGGGTTCTAACCTGTTGCTA (site TAGTATCCTTA) | 0.714
TAGTATCCTTGGGTTCTAACCTGTTGCTA (site TAGTATGCTTA) | 0.0411

Sequence | recombinant barcode read abundance (log10)
TAGTCGTCTTGGGTTCTAACCTGTTGCTT (site TAGTCGTCTAA) | 0.456
TAGTCGTCTTGGGTTCTAACCTGTTGCTT (site TAGTCGTCTAG) | 0.309
TAGTCTGCTTGGGTTCTAACCTGTTGCCT (site TAGACTGCTAG) | 0.0965
TAGTCTGCTTGGGTTCTAACCTGTTGCCT (site TAGCCTGCTAG) | 0.27
TAGTCTGCTTGGGTTCTAACCTGTTGCCT (site TAGGCTGCTAG) | 0.0685
TAGTCTGCTTGGGTTCTAACCTGTTGCCT (site TAGTCTGCTAG) | 0.0515
TAGTGCTCTTGGGTTCTAACCTGTTGCCT (site TAGTGCTCTAG) | 1.12
TAGTGCTCTTGGGTTCTAACCTGTTGCCT (site TAGTGCTCTCG) | 0.434
TAGTGCTCTTGGGTTCTAACCTGTTGCCT (site TAGTGCTCTGG) | 0.157
TAGTGCTCTTGGGTTCTAACCTGTTGCCT (site TAGTGCTCTTG) | 0.178
TAGTGGCCTTGGGTTCTAACCTGTTGCCA (site TAGTGGACTTG) | 0.095
TAGTGGCCTTGGGTTCTAACCTGTTGCCA (site TAGTGGCCTTG) | 0.261
TAGTGTACTTGGGTTCTAACCTGTTGCCT (site TAGTGTACTAG) | 0.579
TAGTGTACTTGGGTTCTAACCTGTTGCCT (site TAGTGTCCTAG) | 0.16
TAGTGTACTTGGGTTCTAACCTGTTGCCT (site TAGTGTGCTAG) | 0.221
TAGTGTACTTGGGTTCTAACCTGTTGCCT (site TAGTGTTCTAG) | 0.376
TAGTGTCCTTGGGTTCTAACCTGTTGCAT (site TAGTGTCCTAT) | 0.769
TAGTGTCCTTGGGTTCTAACCTGTTGCAT (site TAGTGTTCTAT) | 0.155
TAGTTAACTTGGGTTCTAACCTGTTGCCA (site TAGTTAACTTG) | 0.569
TAGTTAACTTGGGTTCTAACCTGTTGCCA (site TAGTTCACTTG) | 0.0909
TAGTTAACTTGGGTTCTAACCTGTTGCCA (site TAGTTGACTTG) | 0.0635
TAGTTAACTTGGGTTCTAACCTGTTGCCA (site TAGTTTACTTG) | 0.0484

Sequence | recombinant barcode read abundance (log10)
TAGTTAGCTTGGGTTCTAACCTGTTGCCG (site TAGTTAGCTAG) | 0.0808
TAGTTAGCTTGGGTTCTAACCTGTTGCCG (site TAGTTAGCTCG) | 0.666
TAGTTAGCTTGGGTTCTAACCTGTTGCCG (site TAGTTAGCTGG) | 0.00835
TAGTTAGCTTGGGTTCTAACCTGTTGCCG (site TAGTTAGCTTG) | 0.0519
TAGTTATCTTGGGTTCTAACCTGTTGCTA (site AGACGTACTAC) | 0.134
TAGTTATCTTGGGTTCTAACCTGTTGCTA (site TAGTTATCTTA) | 0.0606
TAGTTGCCTTGGGTTCTAACCTGTTGCCT (site TAATTGCCTAG) | 0.296
TAGTTGCCTTGGGTTCTAACCTGTTGCCT (site TACTTGCCTAG) | 0
TAGTTGCCTTGGGTTCTAACCTGTTGCCT (site TAGTTGCCTAG) | 0.565
TAGTTGCCTTGGGTTCTAACCTGTTGCCT (site TATTTGCCTAG) | 0.0554
TATACACCTTGGGTTCTAACCTGTTGCGT (site CTCCGGGCTCT) | 0.0474
TATACACCTTGGGTTCTAACCTGTTGCGT (site TATACACCTAC) | 1.48
TATACCACTTGGGTTCTAACCTGTTGCCT (site TATACCACTAG) | 0.541
TATACCACTTGGGTTCTAACCTGTTGCCT (site TCGACCACTAG) | 0.103
TATATGACTTGGGTTCTAACCTGTTGCGG (site ATGCACGCTAG) | 0.0662
TATATGACTTGGGTTCTAACCTGTTGCGG (site TATATGACTCC) | 1.41
TATCCTCCTTGGGTTCTAACCTGTTGCCG (site GTGGAGTCTAC) | 0.177
TATCCTCCTTGGGTTCTAACCTGTTGCCG (site TATCCTCCTCG) | 0.318
TATCGGCCTTGGGTTCTAACCTGTTGCCT (site TAACGGCCTAG) | 0.0814
TATCGGCCTTGGGTTCTAACCTGTTGCCT (site TACCGGCCTAG) | 0.0568
